Experimental data as given in patent US12624068B2, “Exon skipping by peptide nucleic acid derivatives” (OliPass Corporation, priority 2016, dated 2026).
[C(1O2)] = modified PNA monomer acting as cytosine, C(pOq) type, 1O2; [A(5)] = modified PNA monomer acting as adenine, A(p) type, p=5; [G(6)] = modified PNA monomer acting as guanine, G(p) type, p=6; {Fethoc} = N-terminal Fethoc cap; {NH2} = C-terminal amide

Tests used:
[1] = test system: mouse dystrophin pre-mRNA; test: Dystrophin nested PCR (Method B) in muscles of mdx mice; format: in vivo; conditions: skeletal muscles sampled in Week 7
Protocol: The RNA samples obtained in “DMD Example 1” were subjected to a one-step cDNA synthesis using a set of exon-specific primers of [DMD-exon 20_forward: (5'→3') […] NO: 107); and DMD-exon 26_reverse: (5'→3') […] NO: 108)]. The cDNA samples were then analyzed by nested PCR against another set of exon-specific primers of [DMD-exon 20n_forward: (5'→3') […] NO: 109); and DMD-exon 26n_reverse: (5'→3') […] NO: 110)]. [Nested PCR for Exon Skipping (Method B)] Muscle samples were homogenized by grinding in a tube kept on ice, and subjected to total RNA extraction with 1 mL trizol reagent (Invitrogen) per ca 100 mg muscle tissue. The total RNAs were evaluated for exon skipping by nested PCR as described in “DMD Example 2”.

full-length dystrophin = test: IHC of skeletal muscles against full-length dystrophin in mdx mice; format: in vivo
Excerpt: [IHC Evaluation of Skeletal Muscles against Full-length Dystrophin] In Weeks 7, 13 and 21, two animals per group were randomly selected and sacrificed to extract muscle tissues. In Week 30, 3 animals were sacrificed per group.
The muscle tissues sampled in Week 7 were subjected to IHC against the full-length dystrophin by cryosection. The muscle tissues sampled in Weeks 13, 21 and 30 were immunostained by paraffin block. IHC by paraffin block yielded images of better quality than IHC by cryosection.
Muscle samples were subjected to immunostaining in series with a primary antibody targeting the C-terminal of mouse dystrophin (Cat. Number sc-816, Santa Cruz) at 1:100 dilution, with a secondary anti-IgG antibody (Cat Number BA-1100, Vector) at 1:200 dilution, and then with Dylight 594-streptavidin (Cat Number SA-5594, Vector, CA, USA) at 1:200 dilution for red fluorescence tagging. The IHC images were captured on a Zeiss slide scanner (in Weeks 13, 21 and 30) or an Olympus fluorescence microscope (in Week 7). […]
The dystrophin IHC images were subjected to quantification for the full-length dystrophin expression by digitally scoring the intensity of red fluorescence in each individual IHC image using the “ImageJ” program (NIH). Individual fluorescence scores were combined by group and muscle type for statistical evaluation against the wild type negative control group.

SCN9A mRNA = test: SCN9A nested qPCR by SYBR Green in PC3 cells; format: cell-based, human; conditions: 24 hours
Protocol: “SCN-ASO 7” was evaluated for its ability to inhibit the expression of the human SCN9A mRNA in PC3 cells by qPCR against a set of exon-specific primers as follows. [Cell Culture & ASO Treatment] PC3 cells grown in 60 mm culture dish containing 5 mL culture medium were incubated with “SCN-ASO 7” for 24 hours at 0 (negative control), 10, 100 or 1,000 zM. (2 culture dishes per concentration) [RNA Extraction] […] [cDNA Synthesis by One Step RT-PCR] […] NO: 78); and SCN-exon 9_reverse: (5'→3') […] NO: 79)]. […] [Nested qPCR Amplification] […] NO: 80); SCN-exon 4_reverse: (5'→3') […] NO: 81); SCN-exon 5_forward: (5'→3') […] NO: 82); SCN-exon 5_reverse: (5'→3') […] NO: 83); SCN-exon 6_forward: (5'→3') […] NO: 84); SCN-exon 6_reverse: (5'→3') […] NO: 85)]. The PCR reactions were probed with SYBR Green (Takara, Japan). […] “SCN-ASO 3” was evaluated for its ability to inhibit the expression of the full-length SCN9A mRNA in PC3 cells according to the protocol described in “SCN9A Example 2”, unless noted otherwise. “SCN-ASO 8” was evaluated for its ability to inhibit the expression of the full-length SCN9A mRNA in PC3 cells according to the protocol described in “SCN9A Example 2”, unless noted otherwise.

[2] = test system: rats with diabetes-induced peripheral neuropathic pain (DPNP); test: Reversal of allodynia (von Frey) in rats with diabetes-induced peripheral neuropathic pain; format: in vivo, rat; conditions: 100 pmole/Kg subcutaneous in Days 11, 13, 15, 17 and 19
Protocol: “SCN-ASO 7”, “SCN-ASO 8”, “SCN-ASO 21”, “SCN-ASO 35”, “SCN-ASO 36” and “SCN-ASO 37” were evaluated for their ability to reverse the allodynia in rats with diabetes-induced peripheral neuropathic pain (DPNP). In this example, the six SCN9A ASOs targeting a total of five splice sites were evaluated for their ability to reverse the allodynia induced by diabetic neuropathy in rats.
[Induction of DPNP and Grouping] Diabetes was induced in rats by an intraperitoneal injection of streptozotocin at 60 mg/Kg in Day 0. In Day 10, rats with DPNP were randomly assigned to […] of negative control (vehicle only), “SCN-ASO 7” 100 pmole/Kg, “SCN-ASO 8” 100 pmole/Kg, “SCN-ASO 21” 100 pmole/Kg, “SCN-ASO 35” 100 pmole/Kg, “SCN-ASO 36” 100 pmole/Kg, and “SCN-ASO 37” 100 pmole/Kg. The animals were grouped based on the von Frey scores of individual animals in Day 10. (N=8-9 per group) Allodynia was scored using a set of microfilaments (Touch Test®) according to the “Up & Down” method. [J Neurosci. Methods vol 53(1), 55-63 (1994)]
[ASO Treatment and von Frey Scoring] ASO solutions for injection were prepared by serially diluting aqueous mother stock solutions of the SCN9A ASOs to 100 nM in PBS (phosphate buffered saline). Animals were subcutaneously administered with ASO at 1 mL/Kg in Days 11, 13, 15, 17 and 19. Von Frey scoring was carried out 2 hours post dose in Days 11, 13, 15, 17 and 19. Von Frey scoring was additionally performed in Days 21 and 23 in order to assess the duration of the therapeutic activity after the final dosing. Daily von Frey scores were evaluated for statistical significance by student's t-test against the negative control group (vehicle only, i.e., PBS).

| Substance | in-frame PCR products of Δexons 21-23 and Δexons 21-24 (nested PCR Method B) [1] | in vivo potency relative to the PMO ASO eteplirsen (30 mg/Kg per week) (full-length dystrophin; 200 pmole/Kg corresponds to ca 1 μg/Kg, different species and exon) | full-length dystrophin expression relative to the WT negative control group (IHC) (full-length dystrophin; mdx mice, 200 pmole/Kg 2× per week, Week 30) [%] | decrease of expression levels of SCN9A exons 4-6 (SYBR Green) (SCN9A mRNA; PC3 cells, 10 zM) [%] | decrease of expression levels of SCN9A exons 4-6 (SYBR Green) (SCN9A mRNA; PC3 cells, 100 zM) [%] | decrease of expression levels of SCN9A exons 4-6 (SYBR Green) (SCN9A mRNA; PC3 cells, 1,000 zM) | maximum therapeutic efficacy based on the von Frey scores in Day 19 [2] [%] |
| --- | --- | --- | --- | --- | --- | --- | --- |
| Fethoc-A(5)GA-G(6)CC(1O2)-TCA-A(5)AA(5)-T-NH2 (antisense AGAGCCTCAAAAT; Fethoc N-cap, C-terminal amide, chemistry not fully specified) [DMD-ASO 1] | detected in muscle samples of the ASO treatment groups | ~30,000 times | > 80 |  |  |  |  |
| Fethoc-AC(1O2)T-TA(5)C-G(6)CA-A(5)AA(5)-AC(1O2)A-A(5)-NH2 (ACTTACGCAAAAACAA; all peptide nucleic acid (PNA), [C(1O2)] at 2, 14, [A(5)] at 5, 10, 12, 16, [G(6)] at 7, 5' {Fethoc}, 3' {NH2}; peptide nucleic acid written N to C) [SCN-ASO 7] |  |  |  | ~70 | 40 | 20-30% | ~76 |
